As a reminder, the fraction unbound is the share of the substance not bound to proteins or other matrix. Read a low fraction unbound as little free substance. By kinetic solubility is commonly meant the concentration staying in solution when a stock, usually in DMSO, is diluted into the medium.

A short description of data set [1]: in vitro. As to conditions: female, CD1, mouse, plasma.
Experimental: Plasma protein binding assay: Briefly, a 96 well equilibrium dialysis apparatus was used to determine the free fraction in plasma for each compound (HT Dialysis LLC, Gales Ferry, CT). Membranes (12–14 kDa cut‐off) were conditioned in deionized water for 60 minutes, followed by conditioning in 80 : 20 deionized water: ethanol for overnight at 4 °C and then rinsed in isotonic buffer before use. Female CD1 mouse plasma was removed from the freezer and allowed to thaw on the day of experiment. Thawed plasma was then centrifuged (Allegra X12‐R, Beckman Coulter, USA), spiked with test compound (final concentration 10 μg/mL), and 150 μL aliquots (n=6 replicate determinations) loaded into the 96‐well equilibrium dialysis plate. Dialysis vs isotonic buffer (150 μL) was carried out for 5 h in a temperature‐controlled incubator at 37 °C (Barworld scientific Ltd, UK) using an orbital microplate shaker at 100 rpm (Barworld scientific Ltd, UK). […] All samples were analyzed by UPLC‐MS/MS on a Quattro Premier XE Mass Spectrometer (Waters Corporation, USA). The unbound fraction was determined as the ratio of the peak area in buffer to that in plasma.
In data set [2] the target is T1, Human trypsin (Homo sapiens, UniProt P07477).
T1 construct: purchased Polymun Scientific
In words: Trypsin enzyme inhibition assay. Format: biochemical. As to conditions: read-out: Trypsin pIC50 (converted). Here is the method: Human thrombin was purchased from Biopur. Human trypsin was purchased from Polymun Scientific. Human Factor Xa was purchased from Enzo Life Sciences. […] Fluorescence intensity was then read at ex/em 485/535 following incubation for 1 h at room temperature (thrombin and factor Xa) or 20 min (trypsin).

Data set [3] in a line: Kinetic aqueous solubility (laser nephelometry). Format: physicochemical. The settings on record: Milli-Q water with […] DMSO, kinetic from dmso stock, 2.5 % DMSO. The protocol:
Kinetic aqueous solubility: The aqueous solubility of the test compounds was measured using laser Nephelometry. Compounds were subjected to serial dilution from 10 mM to 0.5 mM in DMSO. An aliquot was then mixed with Milli‐Q water to obtain an aqueous dilution plate with a final concentration range of 250–12 μM, with a final DMSO concentration of 2.5 %. Triplicate aliquots were transferred to a flat bottomed polystyrene plate which was immediately read on the NEPHELOstar (BMG Lab Technologies). The amount of laser scatter caused by insoluble particulates (relative nephelometry units, RNU) was plotted against compound concentration using a segmental regression fit, with the point of inflection being quoted as the compounds aqueous solubility (μM).

Data set [4] is described as follows: Hepatocytes intrinsic clearance. Format: in vitro ADME. Here is the method: Hepatocytes Intrinsic clearance (CLint) assay: Cryopreserved vials of mouse cryopreserved hepatocytes, supplied by Life Technologies, were thawed according to manufacturer's instructions and cells re‐suspended in Williams Medium E (WME) containing cell maintenance supplement pack (CM4000, Life Technologies). Hepatocytes were incubated in suspension (0.5x10^6 cells/mL) in 48 well non‐collagen coated cell culture plates for 10 min at 37 °C, 95 % O2 5 % CO2. Upon addition of an equal volume of supplemented WME containing 1 μM test compound, an aliquot of incubation solution was removed to acetonitrile containing internal standard (final concentration 0.5 μM test compound and a cell density of 0.25×10^6 cells/mL). Similarly, aliquots were removed at 3, 6, 9, 15, 30, 45, 60, 90 and 120 min. 100 μL of 80 : 20 H2O/MeCN was added to all samples and the analysis plate was centrifuged for 10 min at room temperature prior to injection and analysis of samples by UPLC‐MS/MS. The response (area ratio of test compound to internal standard) was plotted against time using an exponential decay model and rate of disappearance calculated. Hepatocyte CLint (mL/min/10^6 cells) was scaled to in vivo CLint (mL/min/g liver) using the hepatocellularity scaling factor of 120×10^6 cells/g of liver.

The target in data set [5] is KLK6 (Homo sapiens, UniProt Q92876). In words: KLK6 enzymatic inhibition assay (fluorogenic Boc-Phe-Ser-Arg-AMC substrate). The data set is classed as biochemical. Also noted: made in house. The protocol: Using our previously published KLK6 assay format,21 we performed a HTS with the European Lead Factory (ELF),22 and tested ∼350,000 substances at 10 μM for their ability to reduce KLK6‐catalyzed hydrolysis of the fluorogenic Boc‐Phe‐Ser‐Arg‐AMC peptide.
High Throughput Screen: The European Lead Factory library of ∼350,000 compounds was used for high throughput screening at the Pivot Park Screening Center facilities in Oss, The Netherlands. […] For SPR, Biacore T200 was used and KLK6 was immobilized onto a CM5 chip. […] An 8 point 1 in 3 dilution series of 1 (50 μM to 0.02 μM) was also applied at the beginning and end of each screening day.
Enzyme inhibition assays: All chemicals were purchased from Sigma Aldrich (Gillingham, UK) unless otherwise stated.

The nature of data set [6]: Microsomal intrinsic clearance, human microsomes. Format: in vitro ADME. Here is the method:
Immediately, at time zero, then at 3, 6, 9, 15 and 30 min an aliquot (50 μL) of the incubation mixture was removed and mixed with acetonitrile (100 μL) to stop the reaction. Internal standard was added to all samples, the samples centrifuged to sediment precipitated protein and the plates then sealed prior to UPLC‐MS/MS analysis using a Quattro Premier XE (Waters Corporation, USA). XLfit (IDBS, UK) was used to calculate the exponential decay and consequently the rate constant (k) from the ratio of peak area of test compound to internal standard at each timepoint. The rate of intrinsic clearance (CLint) of each test compound was then calculated using the following calculation: CLint (mL/min/g liver)=k×V×Microsomal protein yield. Where V (mL/mg protein) is the incubation volume/mg protein added and microsomal protein yield is taken as 52.5 mg protein/g liver. Verapamil (0.5 μM) was used as a positive control to confirm acceptable assay performance.

The target in data set [7] is T2, Human Factor Xa (Homo sapiens, UniProt P00742).
T2 construct: Human Factor Xa was purchased from Enzo Life Sciences; purchased Enzo Life Sciences
In words: Factor Xa enzyme inhibition assay. The data set is classed as biochemical. The settings on record: read-out: Factor Xa pIC50 (converted). The protocol: Human thrombin was purchased from Biopur. Human trypsin was purchased from Polymun Scientific. Human Factor Xa was purchased from Enzo Life Sciences. Thrombin (20 nM), trypsin (0.000015 %) or Factor Xa (10 nM) were assayed in a similar manner to the KLKs but were incubated with compound for 20 min at room temperature in assay buffer (50 mM Tris HCl, pH 7.6, 100 mM NaCl, 1 mg/ml CHAPS, 0.05 % bovine serum albumin (BSA), 1 mM dithiothreitol (DTT)) before the addition of 5 μM, 2.5 μM or 1.5 μM Rhodamine 110 substrate (Cambridge bioscience ltd) respectively. Fluorescence intensity was then read at ex/em 485/535 following incubation for 1 h at room temperature (thrombin and factor Xa) or 20 min (trypsin).

Data set [8] in a line: Plasma stability assay. The data set is classed as in vitro ADME, mouse. The protocol:
Plasma stability assay: Test compound (10 μM) was incubated in pre‐warmed plasma at 37 °C (that is buffered to pH 7.4 in ratio of 70 : 30 plasma to buffer). Immediately, at time zero, then at 30, 60, 120, and 180 min, a 50 μL aliquot of the incubation mixture was removed and mixed with 200 μL acetonitrile containing Donepezil as the internal standard (50 ng/mL) to stop the reaction. The samples were centrifuged to sediment the precipitated protein and the plates then sealed prior to UPLC‐MS/MS analysis using a Quattro Premier XE (Waters Corporation, USA). XLfit (IDBS, UK) was used to calculate the exponential decay and consequently the rate constant (k) from the ratio of peak area of test compound to internal standard at each time point. The half‐life was calculated for each test compound from the rate by using the following calculation: t1/2=0.693/k

Data set [9] concerns HCT116 cells. Nature of the data set: HCT116 cell growth and viability. The data set is classed as cell-based. As to conditions: at the tested concentrations (data not shown). The text has this: We have previously shown that knockdown of KLK6 reduces migration and invasion of HCT116 cells in vitro.13 In order to test whether this effect could be recapitulated with small molecule KLK6 inhibitors, we measured the ability of 32 to reduce invasion of HCT116 cells. […] HCT116 cell growth and viability was not altered upon treatment with compounds 9 and 32 at the tested concentrations (data not shown).

T2 sequence (P00742 235-488 limits assumed): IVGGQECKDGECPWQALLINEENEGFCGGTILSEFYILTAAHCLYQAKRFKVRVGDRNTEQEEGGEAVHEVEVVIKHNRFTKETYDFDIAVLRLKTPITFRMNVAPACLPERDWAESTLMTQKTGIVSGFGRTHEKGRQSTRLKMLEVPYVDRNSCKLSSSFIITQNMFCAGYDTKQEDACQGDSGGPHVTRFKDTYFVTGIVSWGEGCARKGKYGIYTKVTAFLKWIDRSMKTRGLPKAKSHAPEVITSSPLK
T2 sequence (P00742 41-179 partner limits assumed): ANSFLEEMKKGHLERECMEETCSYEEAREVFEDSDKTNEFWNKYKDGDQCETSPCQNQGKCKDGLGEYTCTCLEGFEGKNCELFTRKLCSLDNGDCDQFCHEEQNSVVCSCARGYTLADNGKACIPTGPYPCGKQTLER

Molecule `CC[C@H](NC(=O)[C@H]1CN(c2ccc(C(=N)N)cc2)C(=O)O1)c1cccc2ccccc12` [Compound 32, (5R)‐3‐(4‐carbamimidoylphenyl)‐N‐((S)‐1‐(naphthalen‐1‐yl)propyl)‐2‐oxooxazolidine‐5‐carboxamide] had a fraction unbound at 5 h, 10 μg/mL in data set [1] of 0.11. For the same molecule, the IC50 in data set [2] is 63.1 nM; in [5] (synthesized inhibitors (Table 3), 8.6 = assay limit, read-out: KLK6 pIC50 (converted)) it was 2.51 nM; in data set [7] it was > 20000 nM. Further, the kinetic solubility in [3] was > 250 µM. Moreover, the “Mouse Hep Cl” value in data set [4] stood at 2.3 mL/min/g. Also, the “gain in potency for KLK6” value in data set [5] (relative to 5) is listed as ~100 fold. In data set [6], the “Human CLint” value amounted to 3.1 mL/min/g. Further, the “stability in mouse plasma” value in [8] (over 3 h) is given as “no instability”. For the same molecule, in data set [8] (pH 7.4, mouse plasma, 37 °C, read-out: Mouse Plasma Stability (t1/2)), the half-life at 10 μM was > 3 h. In addition, the “HCT116 cell growth and viability” value in data set [9] is given as “not altered”.

The values above are taken from PMC7004151, “Synthesis and Structure‐Activity Relationships of N‐(4‐Benzamidino)‐Oxazolidinones: Potent and Selective Inhibitors of Kallikrein‐Related Peptidase 6” (Chemmedchem, 2019).
